Experimental data: ChEMBL document CHEMBL1122462, “Potential antiatherosclerotic agents. 4. [(Functionalized-alkyl)amino]benzoic acid analogues of cetaben” (1983)

Tests used:
[1] = biological target: T1, Sterol O-acyltransferase 1 (Rattus norvegicus) (UniProt O70536); assay: In vitro inhibitory activity against acyl coenzyme A:cholesterol acyltransferase; parameters: concentration or dose not given beside the values; conditions: concentration not given here
T1 sequence (whole entry): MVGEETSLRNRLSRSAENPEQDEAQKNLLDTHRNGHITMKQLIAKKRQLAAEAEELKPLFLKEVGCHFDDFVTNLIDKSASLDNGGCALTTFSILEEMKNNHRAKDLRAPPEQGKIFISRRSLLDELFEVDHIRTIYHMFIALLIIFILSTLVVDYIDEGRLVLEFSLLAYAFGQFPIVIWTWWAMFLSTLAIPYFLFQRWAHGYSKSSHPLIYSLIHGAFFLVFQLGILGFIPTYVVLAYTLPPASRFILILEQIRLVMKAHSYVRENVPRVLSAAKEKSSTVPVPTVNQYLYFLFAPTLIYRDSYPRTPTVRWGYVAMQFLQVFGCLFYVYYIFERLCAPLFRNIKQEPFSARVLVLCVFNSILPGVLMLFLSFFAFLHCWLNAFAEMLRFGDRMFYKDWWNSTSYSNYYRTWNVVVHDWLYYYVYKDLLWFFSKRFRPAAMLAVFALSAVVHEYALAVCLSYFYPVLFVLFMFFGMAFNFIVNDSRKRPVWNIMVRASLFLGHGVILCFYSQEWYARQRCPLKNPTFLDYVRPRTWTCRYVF

Rattus norvegicus [2] = assay: In vivo Triglyceride lowering activity at dose as 0.03 % of the diet; type: functional
Rattus norvegicus [3] = assay: In vivo sterol lowering activity, dosed as 0.03 % of the diet; type: functional
Rattus norvegicus [4] = assay: In vivo sterol lowering activity at dose of 0.10 % of the diet; type: functional
Rattus norvegicus [5] = assay: In vivo Triglyceride lowering activity at dose as 0.01 % of the diet; type: functional
Rattus norvegicus [6] = assay: In vivo Triglyceride lowering activity at a dose of 0.10 % of the diet; type: functional
Rattus norvegicus [7] = assay: In vivo Sterol lowering activity at dose as 0.01% of the diet; type: functional

Row | Structure (SMILES) | inhibition [1] | triglyceride lowering activity (Rattus norvegicus [2]) | serum sterol level, percent of control (Rattus norvegicus [3]) | serum sterol level, % of control (Rattus norvegicus [4]) | serum triglyceride level (% of control) (Rattus norvegicus [5]) | serum triglyceride level (% of control) (Rattus norvegicus [6]) | serum sterol level, percent of control (Rattus norvegicus [7])
1 | CCCCCCCCCCCCCCCCN(C(=O)CCC(=O)O)c1ccc(C(=O)O)cc1 | 13% | 90% | 105% | 88% | 84% | 117% | 111%
2 | CC(C)(C)CCCCCCCCCCCCNc1ccc(C(=O)O)cc1 | < 59% | <53% | <77% | <75% | <75% | <26% | 94%
3 | CCCCCCCCCCCCCCCCN(CC(=O)O)c1ccc(C(=O)O)cc1 | 15% | 100% | 109% | 93% | 105% | 99% | 105%
4 | CCOC(=O)c1ccc(NCCCCCCCCCCCCCCCC(F)(F)F)cc1 | 8% | <47% | <72% | <75% | <75% | <41% | <83%
5 | CCOC(=O)c1ccc(NCCCCCCCCCCCCCCC(C)C)cc1 | 0% | <54% | <85% | <80% | <66% | <58% | 87%
6 | Br.CCOC(=O)c1ccc(NCCCCCCCCCCCSC(=N)N)cc1 | < 73% | <69% | 107% | 98% | 85% | <59% | 100%
7 | CCOC(=O)c1ccc(NCCCCCCCCCCCCCC(C)C)cc1 | 9% | 84% | <89% | <80% | 84% | <61% | 92%
8 | CCCCCCCCCCCCCCCC(=O)Nc1ccc(C(=O)O)cc1 | 16% | 94% | 118% | 112% | 103% | 105% | 111%
9 | CCOC(=O)c1ccc(NCCCCCCCCCCC[Si](C)(C)C)cc1 | 17% | 111% | 87% | <57% | 113% | <78% | 85%
10 | CCCC[S+]([O-])CCCCCCCCCCCNc1ccc(C(=O)O)cc1 (centres undefined) | < 15% | 94% | 95% | 91% | 87% | <66% | 106%
11 | CC(C)CCCCCCCCCCCCCNc1ccc(C(=O)O)cc1 | < 63% | <68% | <76% | <64% | 77% | <29% | <89%
12 | O=C(O)c1ccc(NCCCCCCCCCCCC2CCCCC2)cc1 | < 56% | <51% | 91% | 83% | 73% | <48% | 95%
13 | CC(C)CCCCCCCCCCCCCCNc1ccc(C(=O)O)cc1 | < 51% | <50% | <67% | <44% | 76% | <29% | <79%
14 | CCCCCCCCCCCCCCCCN(CC(=O)OCC)c1ccc(C(=O)OC)cc1 | 11% | 97% | 100% | 104% | 113% | 104% | 106%
15 | O=C(O)c1ccc(NCCCCCCCCCCC(F)(F)F)cc1 | 22% | <57% | <80% | <69% | <57% | <56% | 92%

Continued, in another order:

Row | inhibition [1] | Structure (SMILES) | triglyceride lowering activity (Rattus norvegicus [2]) | serum sterol level, percent of control (Rattus norvegicus [3]) | serum sterol level, % of control (Rattus norvegicus [4]) | serum triglyceride level (% of control) (Rattus norvegicus [5]) | serum triglyceride level (% of control) (Rattus norvegicus [6]) | serum sterol level, percent of control (Rattus norvegicus [7])
16 | 13% | CCCCCCCCCCC(Cl)CCCCCNc1ccc(C(=O)OCC)cc1 (centres undefined) | 84% | 91% | 94% | 82% | <53% | 98%
17 | < 36% | O=C(O)c1ccc(NCCCCCCCCCCCOc2ccc(C(=O)O)cc2)cc1 | 79% | 91% | 103% | 90% | 91% | 103%
18 | 0% | CCCCCCCCCCC(N)CCCCCNc1ccc(C(=O)OCC)cc1 (centres undefined) | 70% | 99% | 84% | 68% | <45% | 97%
19 | < 33% | O=C(CCCCCCCCCCOc1ccc(C(=O)O)cc1)Nc1ccc(C(=O)O)cc1 | 106% | 93% | 100% | 116% | 93% | 100%
20 | < 18% | CCCCCCCCCCCCCCC(C)Nc1ccc(C(=O)OCC)cc1 (centres undefined) | <55% | 100% | 93% | 81% | <55% | 107%
21 | 18% | CCCCCCCCCCC(=O)CCCCCNc1ccc(C(=O)O)cc1 | <68% | 90% | <84% | <63% | <46% | 95%
22 | 0% | CCOC(=O)c1ccc(NCCCCCCCCCCCCCCCCSC(C)=O)cc1 | 75% | 96% | 93% | 91% | <57% | 98%
23 | < 38% | O=C(O)c1ccc(NCCCCCCCCCCCCCCCCS)cc1 | <45% | 101% | 101% | 67% | <40% | 96%
24 | 5% | CCOC(=O)c1ccc(NCCCCCCCCCCCCCCC(C)(C)C)cc1 | <71% | <78% | <68% | 79% | <44% | <69%
25 | < 61% | CCOC(=O)c1ccc(NCCCCCCCCCCCBr)cc1 | 83% | 94% | 101% | 83% | 74% | 108%
26 | 8% | O=C(O)c1ccc(NCCCCCCCCCCCBr)cc1 | <65% | <86% | 100% | 78% | <55% | 99%
27 | < 33% | CCCCCC(=O)CCCCCCCCCCNc1ccc(C(=O)O)cc1 | <57% | 89% | <81% | <59% | <42% | 93%
